According to PMC3620387, “Targeting the EGFR/PCNA Signaling Suppresses Tumor Growth of Triple-Negative Breast Cancer Cells with Cell-Penetrating PCNA Peptides” (PLoS ONE, 2013):

Columns and labels:
[1] = tested on: MDA-MB 231 cells; test: WST-1 cell viability assay; assay type: cell-based, human; settings: 24 h
Protocol: (§1) Cell viability was determined by WST-1 (4-[3-(4-Iodophenyl)-2-(4-nitrophenyl) -2H-5-tetrazolio]-1,3-benzene disulfonate) assay (Roche). Cells were incubated with or without TKI or CPPP. After culturing for another 24 h, one-tenth volume of WST-1 was added at 4 h before harvest, and the absorbance was detected at 450 nm. Cell viability was normalized by the absorbance from the cells without treatment.

[2] = tested on: MDA-MB 468 cells; test: WST-1 cell viability assay; assay type: cell-based, human; settings: 24 h
Protocol: as §1

[3] = tested on: MCF10A; test: WST-1 cell viability assay; assay type: cell-based; settings: up to 50 µM, 24 h, WST-1, Fig. 1B
Protocol: as §1

[4] = tested on: MDA-MB 231 cells; test: Apoptosis assay, Annexin V staining, flow cytometry; assay type: cell-based, human; settings: 15 µM, 24 h
Protocol: (§2) For apoptosis assay using annexin V staining, cells treated with the CPPP for 24 h and the cells were harvested and resuspended in the binding buffer and then incubated with FITC-conjugated Annexin V and propidium iodide (PI), according to the manufacturer's protocol (BD Biosciences). The percentage of apoptotic cells were assessed by flow cytometry.

[5] = tested on: MDA-MB 468 cells; test: as above; assay type: cell-based, human; settings: 24 h
Protocol: as §2

[6] = molecular target: T1, nEGFR/PCNA (Homo sapiens, UniProt P00533); test: Immunoprecipitation/immunoblot of chromatin lysates: nEGFR binding to PCNA; assay type: cell-based; settings: 30 µM, 24 h, IP anti-PCNA, IB, Fig. 2B
T1 construct: endogenous in cells; host or cells: MDA-MB 468 human TNBC cells (chromatin lysates)
Protocol: Cell extraction, immunoprecipitation and Western blotting were performed as described previously, [29].
The fluorescent images were observed under a confocal microscopy.

[7] = tested on: Iressa-resistant MDA-MB 468 (IR); test: WST-1 cell viability assay; assay type: cell-based, human; settings: 15 µM, 24 h, Fig. 3E
Protocol: (§3) Human triple-negative breast cancer (TNBC) cell lines (MDA-MB 468, and MDA-MB 231) were purchased from American Type Culture Collection. All cells were maintained in DMEM/F12 (1∶1) with 10% FBS. EGFR TKI-resistant TNBC cell lines: Iressa-resistant MDA-MB 468 (IR) and Tarceva-resistant MDA-MB 468 (TR) were established by treatment with gradually increasing concentrations of these drugs for over one month. These TKI-resistant clones were cultured in the presence of 1 µM TKIs. The following peptides were synthesized by MDBio, Inc: Y211F CPPP (Y211F; […]); AK10 CPPP (AK10; […]); TF10 CPPP (TF10; […]); TN8 CPPP (TN8; […]); RK8 CPPP (RK8; […]); RF6 CPPP (RF6; […]); D-RF6 CPPP (D-RF6; […]); Scrambled peptides for Y211F (Scramble; […]); Scrambled peptides for RF6 (Scramble; […]). […]
as §1, with “Cells were incubated with or without TKI or CPPP.” left out
(§4) Figure 3 The cytotoxic effect of CPPP in TKI-resistant TNBC cells. […] (E–F) The P-, IR-, or TR-TNBC cells were treated with 15 µM Y211F CPPP for 24 h and the relative cell viability (E) and Annexin V-positive cells (F) were determined. […]

[8] = tested on: Tarceva-resistant MDA-MB 468 (TR); test: WST-1 cell viability assay; assay type: cell-based, human; settings: 15 µM, 24 h, Fig. 3E
Protocol: as §3
as §1, with “Cells were incubated with or without TKI or CPPP.” left out
as §4

[9] = tested on: Iressa-resistant MDA-MB 468 (IR); test: Apoptosis assay, Annexin V staining; assay type: cell-based, human; settings: 15 µM, 24 h, Fig. 3F
Protocol: as §3, §2, §4

[10] = tested on: Tarceva-resistant MDA-MB 468 (TR); test: Apoptosis assay, Annexin V staining; assay type: cell-based, human; settings: 15 µM, 24 h, Fig. 3F
Protocol: as §3, §2, §4

[11] = tested on: MDA-MB 468 cells; test: Subcutaneous MDA-MB 468 xenograft; assay type: in vivo, nude mice; settings: 200 nmol/mouse, intratumoral injection; for tumor volume compared with control or scrambled peptides / tumor mass compared with control or scrambled peptide group: nude mice; for tumor volume compared with control or scrambled peptides: Fig. 5A, S1A; for tumor mass compared with control or scrambled peptide group: end of experiment, Fig. 5B, S1B
Protocol: (§5) For subcutaneous implantation, MDA-MB 468 cells (1×10^7 in 100 µL of sterile Dulbecco's phosphate-buffered saline; PBS) were inoculated into nude mice by subcutaneous injection into the flanks. Each group contained 4 mice that were inoculated with tumor cells on both flanks (n = 8). When the tumors were palpable, mice were grouped randomly into 3–4 groups with 4 mice in each group. The mice were then treated with control vehicle, control scrambled peptide, Y211F CPPP, RF6 CPPP, or D-RF6 CPPP, by intratumoral injection. For orthotopic implantation, tumor xenografts were established by injection of Iressa-resistant MDA-MB 468 (IR) cells (1×10^7 resuspended in a 1∶1 mixture of PBS and Matrigel (BD Biosciences) in a total volume of 100 µL) into the mammary fat pad on either side of each 6–8-week old female severe combined immunodeficient (SCID) mice, respectively. When the tumors were palpable, the mice bearing IR tumor xenografts were treated with control vehicle, control scrambled peptide, D-RF6 CPPP (200 nmol/mouse) by intraperitoneal injection. Tumor growth was monitored 3 times/week for five weeks by measuring tumor perpendicular diameters. Tumor volume (V) was calculated using the following formula: V = length×diameter^2×0.5.
(§6) Figure 5 The effect of CPPP on tumor growth in vivo. (A) Approximately 1×10^7 MDA-MB 468 cells were subcutaneously injected into the flanks of nude mice. When the tumors were palpable, mice were randomly divided into 4 groups and treated with PBS (Control), scrambled peptide for RF6 (Scramble), RF6 CPPP, or D-RF6 CPPP (200 nmol/mouse) by intratumoral injection. Tumor volume was measured the tumor volume at the indicated time point. (B) The weight of each of the harvested tumors from (A) was measured after treatment. (C) Approximately 1×10^7 Iressa-resistant MDA-MB 468 (MDA-MB 468/IR) cells were injected into the mammary fat pad on either side of SCID mice. When the tumors were palpable, mice were randomly divided into 3 groups and treated with PBS (Control), scrambled peptide for D-RF6 (Scramble), or D-RF6 CPPP (200 nmol/mouse) by intratumoral injection. Tumor volume was measured the tumor volume at the indicated time point. (D) The weight of each of the harvested tumors from (C) was measured after treatment. The curves and bars indicate mean ± S.D.; *, p<0.05; **, p<0.01; ***, p<0.001 by t-test. (E) Extracted tumor tissue lysates from (D), the protein levels of EGFR, p-Y211, PCNA and cleaved-caspase-3 were determined by IB.
Supplementary file pone.0061362.s001.tif: Figure S1 The effect of Y211F CPPP on tumor growth in vivo. (A) Approximately 1×10^7 MDA-MB 468 cells were subcutaneously injected into the flanks of nude mice. When the tumors were palpable, mice were randomly divided into 3 groups and treated with PBS (Control), scrambled peptide for Y211 (Scramble), or Y211F CPPP (200 nmol/mouse) by intratumoral injection. Tumor volume was measured the tumor volume at the indicated time point. (B) The weight of each of the harvested tumors was measured after treatment. The curves and bars indicate mean ± S.D.; *, p<0.05; **, p<0.01; ***, p<0.001 by t-test. (TIF) Click here for additional data file.

[12] = tested on: MDA-MB 468 cells; settings: 30 µM FITC-labeled peptide, 12 h, anti-EGFR staining, confocal microscopy, Fig. 2A
Protocol: Confocal microscopy was performed as previously described [29].
(A) MDA-MB 468 cells were treated with 30 µM FITC-labeled scrambled (FITC-Scrambled; top) or Y211F CPPP (FITC-Y211F; bottom) for 12 h. Subsequently, cells were fixed, permeabilized, and stained with anti-EGFR antibody or DAPI. The fluorescent images were observed under a confocal microscopy. The FITC-labeled peptide (green), EGFR (red), and nucleus (blue) are shown.

[13] = tested on: Iressa-resistant MDA-MB 468 (MDA-MB 468/IR) cells; test: Orthotopic Iressa-resistant MDA-MB 468 xenograft (mammary fat pad); assay type: in vivo, SCID mice
Protocol: as §5, §6

[14] = 15 µM Y211F CPPP combined with 1∼8 µM EGFR TKI (Tarceva or Iressa), Fig. 2C-2F
[15] = indicated concentrations, WST-1, Fig. 1B
[16] = extracted tumor tissue lysates, IB, Fig. 5E

YGRKKRRQRRRGTFALRFLNFFTK [Y211F CPPP]
relative cell viability, combination with EGFR TKI [1, 14]: enhanced the effect of both TKIs
cancer cells killed ([1]; 50 µM, WST-1, Fig. 1B): more than 80%
relative cell viability [1, 15]: suppressed cell viability
relative cell viability, combination with EGFR TKI [2, 14]: enhanced the effect of both TKIs
cancer cells killed ([2]; 50 µM, WST-1, Fig. 1B): more than 80%
relative cell viability [2, 15]: suppressed cell viability
relative cell viability [3]: no effect
apoptotic response (Annexin V-positive cells) ([4]; Fig. 1C): observed only in MDA-MB 468 and MDA-MB 231 cells
apoptotic response (Annexin V-positive cells) ([5]; 15 µM, flow cytometry, Fig. 1C): observed only in MDA-MB 468 and MDA-MB 231 cells
nEGFR binding to PCNA on chromatin [6]: prevented nEGFR from binding PCNA
relative cell viability compared with parental cells [7]: more sensitive
relative cell viability compared with parental cells [8]: more sensitive
Annexin V-positive cells compared with parental cells [9]: more sensitive
Annexin V-positive cells compared with parental cells [10]: more sensitive
tumor volume compared with control or scrambled peptides [11]: significantly reduced tumor volume
tumor mass compared with control or scrambled peptide group [11]: significantly smaller tumor mass
targeting of EGFR [12]: specifically targeted EGFR

YGRKKRRQRRRGRFLNFF [D-RF6 CPPP, synthetic retro-inverted D form derivative of RF6 CPPP]
growth suppression (relative cell viability) compared with RF6 CPPP ([1]; indicated concentrations, Fig. 4F): enhanced the growth suppression
growth suppression (relative cell viability) compared with RF6 CPPP ([2]; indicated concentrations, Fig. 4E): enhanced the growth suppression
apoptosis activity (Annexin V-positive cells) ([4]; Fig. 4G): enhanced the growth suppression and apoptosis activity
apoptosis activity (Annexin V-positive cells) ([5]; 15 µM, flow cytometry, Fig. 4G): enhanced the growth suppression and apoptosis activity
activity in suppressing tumor growth and reducing tumor volume, on an equimolar basis ([11]; compared with Y211F CPPP): more potent than Y211F CPPP
tumor mass compared with control or scrambled peptides ([13]; 200 nmol/mouse, SCID mice, harvested tumors, Fig. 5D): significantly reduced tumor volume and mass
tumor volume compared with control or scrambled peptides ([13]; 200 nmol/mouse, SCID mice, intratumoral (Fig. 5C legend) or intraperitoneal (methods) injection): significantly reduced tumor volume and mass
PCNA Y211 phosphorylation in tumor tissue [13, 16]: inhibited
cleaved caspase-3 in tumor tissue [13, 16]: cleaved caspase-3 increased

YGRKKRRQRRRGRFLNFF [RF6 CPPP]
relative cell viability ([2]; 50 µM of each CPPP derivative, Fig. 4B): minimal effective peptide
apoptosis (Annexin V-positive cells) ([5]; 50 µM of each CPPP derivative, Fig. 4C): minimal effective peptide
tumor volume compared with control or scrambled peptides [11]: significantly reduced tumor volume
tumor mass compared with control or scrambled peptide group [11]: significantly smaller tumor mass
